Tests used:
[1] = molecular target: T1, Poly [ADP-ribose] polymerase tankyrase-2 (Homo sapiens, UniProt Q9H2K2); assay: Inhibition of recombinant human N-terminal TEV cleavage site-fused/FLAG-poly his-tagged TNKS2 ARC5-SAM-PARP domain (613 to 1166 residues) expressed in Escherichia coli assessed as reduction in auto-PARylation preincubated for 10 mins followed by biotinylated-NAD+ addition and measured after 45 mins by ELISA
T1 sequence (Q9H2K2 whole entry): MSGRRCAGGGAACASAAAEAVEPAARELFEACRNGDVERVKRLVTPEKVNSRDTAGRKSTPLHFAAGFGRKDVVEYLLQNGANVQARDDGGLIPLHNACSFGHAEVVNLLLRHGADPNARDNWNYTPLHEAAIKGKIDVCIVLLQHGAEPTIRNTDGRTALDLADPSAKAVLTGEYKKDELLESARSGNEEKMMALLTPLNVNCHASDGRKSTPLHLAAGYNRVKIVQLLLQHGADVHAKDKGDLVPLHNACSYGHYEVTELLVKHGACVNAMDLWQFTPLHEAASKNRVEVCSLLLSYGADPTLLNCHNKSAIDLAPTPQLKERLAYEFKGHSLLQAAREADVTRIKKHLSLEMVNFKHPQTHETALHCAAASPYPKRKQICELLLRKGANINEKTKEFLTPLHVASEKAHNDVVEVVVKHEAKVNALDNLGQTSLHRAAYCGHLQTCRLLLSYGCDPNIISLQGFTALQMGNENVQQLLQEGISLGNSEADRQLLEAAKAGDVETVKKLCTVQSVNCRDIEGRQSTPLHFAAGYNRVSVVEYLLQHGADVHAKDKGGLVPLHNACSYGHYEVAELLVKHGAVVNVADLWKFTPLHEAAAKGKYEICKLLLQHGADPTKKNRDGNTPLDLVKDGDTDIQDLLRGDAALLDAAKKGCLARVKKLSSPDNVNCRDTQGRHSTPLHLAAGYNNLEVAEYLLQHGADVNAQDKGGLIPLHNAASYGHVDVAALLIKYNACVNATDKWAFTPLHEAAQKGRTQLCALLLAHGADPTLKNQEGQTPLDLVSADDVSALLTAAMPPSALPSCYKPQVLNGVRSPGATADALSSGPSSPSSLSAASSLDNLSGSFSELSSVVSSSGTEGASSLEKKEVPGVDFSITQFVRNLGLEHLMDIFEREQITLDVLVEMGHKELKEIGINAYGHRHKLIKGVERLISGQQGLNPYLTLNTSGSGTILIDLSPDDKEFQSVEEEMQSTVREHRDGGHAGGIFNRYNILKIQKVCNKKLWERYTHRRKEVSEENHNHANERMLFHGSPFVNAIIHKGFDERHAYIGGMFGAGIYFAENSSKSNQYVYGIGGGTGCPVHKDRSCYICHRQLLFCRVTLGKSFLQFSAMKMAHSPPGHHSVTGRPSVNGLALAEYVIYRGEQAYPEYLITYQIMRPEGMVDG

COLO 320DM = assay: Antiproliferative activity against human COLO320DM cells assessed as inhibition of cell growth measured after 4 days by CellTiter-Glo assay; type: functional; conditions: 96 h
[2] = Stability in rat liver microsomes assessed as parent compound remaining at 1 uM measured after 60 mins in presence of NADPH by LC-MS/MS analysis; type: ADME, Microsome; conditions: read-out: Stability
[3] = Stability in human liver microsomes assessed as parent compound remaining at 1 uM measured after 30 mins in presence of NADPH by LC-MS/MS analysis; type: ADME, Microsome; conditions: read-out: Stability
[4] = Stability in human liver microsomes assessed as parent compound remaining at 1 uM measured after 60 mins in presence of NADPH by LC-MS/MS analysis; type: ADME, Microsome; conditions: read-out: Stability
[5] = Protein binding in human plasma assessed as unbound fraction at 1 uM measured after 24 hrs by LC-MS/MS analysis; type: ADME, cell-free
[6] = Cmax in ICR mouse at 50 mg/kg, ip; type: ADME, organism-based; set-up: dose 50 mg/kg, route intraperitoneal; conditions: in vivo
[7] = Cmax in ICR mouse at 50 mg/kg, po; type: ADME, organism-based; set-up: dose 50 mg/kg, route oral; conditions: in vivo
[8] = Half life in ICR mouse at 50 mg/kg, po; type: ADME, organism-based; conditions: in vivo
[9] = molecular target: T2, Poly [ADP-ribose] polymerase tankyrase-1 (Homo sapiens, UniProt O95271)
T2 sequence (O95271 whole entry): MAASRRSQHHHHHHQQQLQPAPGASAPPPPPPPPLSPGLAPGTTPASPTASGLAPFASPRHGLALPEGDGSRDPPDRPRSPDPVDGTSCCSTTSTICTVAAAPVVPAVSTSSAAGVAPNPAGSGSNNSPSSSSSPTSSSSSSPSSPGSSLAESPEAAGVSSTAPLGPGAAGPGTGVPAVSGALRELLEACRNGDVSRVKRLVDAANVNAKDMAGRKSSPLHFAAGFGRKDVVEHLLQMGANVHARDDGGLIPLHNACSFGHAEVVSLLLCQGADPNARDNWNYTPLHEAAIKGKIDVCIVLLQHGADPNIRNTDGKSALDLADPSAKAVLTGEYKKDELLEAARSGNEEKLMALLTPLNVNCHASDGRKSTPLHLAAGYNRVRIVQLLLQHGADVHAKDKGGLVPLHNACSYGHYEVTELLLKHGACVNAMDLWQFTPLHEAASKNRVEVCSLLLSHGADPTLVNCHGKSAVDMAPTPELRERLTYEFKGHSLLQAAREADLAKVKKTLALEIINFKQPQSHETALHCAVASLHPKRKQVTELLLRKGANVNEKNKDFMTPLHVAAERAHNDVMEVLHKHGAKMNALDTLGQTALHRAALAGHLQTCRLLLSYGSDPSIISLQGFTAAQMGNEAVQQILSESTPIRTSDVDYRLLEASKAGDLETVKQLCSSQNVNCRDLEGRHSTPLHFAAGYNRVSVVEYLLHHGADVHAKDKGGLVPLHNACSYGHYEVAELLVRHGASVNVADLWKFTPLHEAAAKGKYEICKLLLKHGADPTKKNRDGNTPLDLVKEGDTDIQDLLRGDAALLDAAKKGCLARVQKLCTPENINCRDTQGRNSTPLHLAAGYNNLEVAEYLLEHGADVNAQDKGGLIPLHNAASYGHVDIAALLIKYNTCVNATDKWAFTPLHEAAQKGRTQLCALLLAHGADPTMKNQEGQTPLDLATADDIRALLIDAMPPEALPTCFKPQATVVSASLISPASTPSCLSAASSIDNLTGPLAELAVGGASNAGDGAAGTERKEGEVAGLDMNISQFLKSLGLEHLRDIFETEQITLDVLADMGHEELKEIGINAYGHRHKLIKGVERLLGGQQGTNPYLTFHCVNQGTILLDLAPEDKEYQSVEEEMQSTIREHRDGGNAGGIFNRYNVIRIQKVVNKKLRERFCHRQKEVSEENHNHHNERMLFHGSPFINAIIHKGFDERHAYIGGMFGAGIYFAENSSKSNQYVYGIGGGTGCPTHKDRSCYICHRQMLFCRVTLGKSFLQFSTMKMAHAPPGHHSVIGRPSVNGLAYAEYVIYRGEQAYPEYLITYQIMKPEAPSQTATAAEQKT
Description: Inhibition of recombinant human N-terminal TEV cleavage site-fused/FLAG-poly his-tagged TNKS SAM-PARP domain (1024 to 1327 residues) expressed in Escherichia coli assessed as reduction in auto-PARylation preincubated for 10 mins followed by biotinylated-NAD+ addition and measured after 45 mins by ELISA

Tankyrase 1/2 = molecular target: T3, Tankyrase 1/2 (Homo sapiens, UniProt Q9H2K2+O95271)
T3 sequence (Q9H2K2 whole entry): T1 sequence (Q9H2K2 whole entry)
T3 sequence (O95271 whole entry): T2 sequence (O95271 whole entry)
Description: Inhibition of TNKS/TNKS2 (unknown origin) expressed in human DLD1 cells assessed as reduction in Wnt-signaling measured after 24 hrs by TCF-luciferase reporter gene assay

| IC50 [1] [nM] | GI50 (COLO 320DM) [nM] | remaining at 1 h, 1 µM [2] [%] | remaining at 0.5 h, 1 µM [3] [%] | remaining at 1 h, 1 µM [4] [%] | fraction unbound at 24 h, 1 µM [5] | Cmax [6] [µM] | Cmax [7] [µM] | half-life [8] [h] | IC50 [9] [nM] | IC50 (Tankyrase 1/2) [nM] | SMILES |
| --- | --- | --- | --- | --- | --- | --- | --- | --- | --- | --- | --- |
| 12.3 | 190 | 65.3 | 72.7 | 30.5 to 54.5 | 0.004 | 53.6 | 21.2 | 4 | 7.7 | 8.4 | CN1CCN(c2cc(F)c3c(c2)N(C)C(=O)C32CCN(c3nc4c(c(=O)[nH]3)CCCN4C)CC2)CC1 |
| 39.2 | 230 | 44 | 73 | 28.7 to 55.9 | 0.003 | 102 | 121 | 1.8 | 36.1 | 3.1 | C[C@@H]1CN(c2cc(F)c3c(c2)N(C)C(=O)C32CCN(c3nc4c(c(=O)[nH]3)CCCN4C)CC2)C[C@H](C)O1 |

Source: ChEMBL document CHEMBL4342498, “Design and Discovery of an Orally Efficacious Spiroindolinone-Based Tankyrase Inhibitor for the Treatment of Colon Cancer” (J Med Chem, 2020)
